Laboratory results taken from BigSolDB 2.1.

Conditions: 298.2 K

O=C(O)c1cccc([N+](=O)[O-])c1
Conditions	solubility (mole fraction)
in 1,4-dioxane	0.193
in 2-methyl-1-butanol	0.11
in 2-methyl-1-pentanol	0.134
in 2-pentanol	0.176
in THF	0.36
in dibutyl ether	0.0346
in diethyl ether	0.127
in diisopropyl ether	0.0591
in ethanol	0.175
in ethyl acetate	0.138
in isobutanol	0.113
in isopentanol	0.145
in isopropanol	0.17
in methanol	0.211
in methyl acetate	0.147
in n-butanol	0.146
in n-butyl acetate	0.108
in n-decanol	0.139
in n-heptanol	0.136
in n-hexanol	0.139
in n-octanol	0.144
in n-pentanol	0.143
in n-propanol	0.149
in propylene carbonate	0.0834
in sec-butanol	0.188
in tert-butanol	0.217
